Experimental data reported in patent publication EP3915971A1, “PHENYL-S(O)N-PHENYLAMIDINES AND THE USE THEREOF AS FUNGICIDES” (Bayer Aktiengesellschaft, priority 2020, dated 2021).

What was measured:
[1] = LogP measurement by HPLC on reversed phase columns (EEC directive 79/831 Annex V.A8); format: physicochemical; settings: reversed phase HPLC columns
Protocol: Measurement of LogP values was performed according to EEC directive 79/831 Annex V.A8 by HPLC (High Performance Liquid Chromatography) on reversed phase columns with the following methods: • ^[a] LogP value is determined by measurement of LC-UV, in an acidic range, with 0.1% formic acid in water and acetonitrile as eluent (linear gradient from 10% acetonitrile to 95% acetonitrile). • ^[b] LogP value is determined by measurement of LC-UV, in a neutral range, with 0.001 molar ammonium acetate solution in water and acetonitrile as eluent (linear gradient from 10% acetonitrile to 95% acetonitrile). • ^[c] LogP value is determined by measurement of LC-UV, in an acidic range, with 0.1% phosphoric acid and acetonitrile as eluent (linear gradient from 10% acetonitrile to 95% acetonitrile).
If more than one LogP value is available within the same method, all the values are given and separated by "+". […]

Phakospora pachyrhizi = assay: in vivo preventive test on Phakospora pachyrhizi (soybean rust); settings: Glycine max, 264 h; 500 ppm of active ingredient; preventive spray on young soybean plants, inoculation after 24 hours, evaluated 11 days after inoculation; 0% = control plants, 100% = no disease; read-out: efficacy
Protocol: Example A: in vivo preventive test on Phakospora pachyrhizi (soybean rust) [table] The active ingredients were made soluble and homogenized in a mixture of Dimethyl sulfoxide/Acetone/ /Tween® 80 and then diluted in water to the desired concentration. The young plants of soybean were treated by spraying the active ingredient prepared as described above. Control plants were treated only with an aqueous solution of Acetone/Dimethyl sulfoxide/ Tween® 80. After 24 hours, the plants were contaminated by spraying the leaves with an aqueous suspension of Phakospora pachyrhizi spores. The contaminated soybean plants were incubated for 24 hours at 24°C and at 100% relative humidity and then for 10 days at 24°C and at 70-80% relative humidity. The test was evaluated 11 days after the inoculation. 0% means an efficacy which corresponds to that of the control plants while an efficacy of 100% means that no disease was observed.

[2] = method [a]: LC-UV, acidic range, 0.1% formic acid in water and acetonitrile as eluent (linear gradient 10% to 95% acetonitrile)

Row | chromatographic logP [1, 2] | chromatographic logP ([1]; method [b]: LC-UV, neutral range, 0.001 molar ammonium acetate solution in water and acetonitrile as eluent (linear gradient 10% to 95% acetonitrile)) | Compound | pest or weed control at 500 ppm (Phakospora pachyrhizi)
1 | 1.66 |  | CCN(C)C=Nc1cc(C#N)c(Sc2ccccc2Cl)cc1C [Example I-060, N'-[4-[(2-chlorophenyl)thio]-5-cyano-2-methylphenyl]-N-ethyl-N-methylmethanimidamide] | ≥ 70%
2 | 1.42 |  | CCN(C)C=Nc1cc(C#N)c(Sc2ccccc2)cc1C [Example I-054, N'-(5-cyano-2-methyl-4-phenylsulfanylphenyl)-N-ethyl-N-methylmethanimidamide] | ≥ 70%
3 | 1.99 |  | CCN(C)C=Nc1cc(C)c(Sc2ccccc2C)cc1C1CC1 [Example I-085, N'-[2-cyclopropyl-5-methyl-4-[(2-methylphenyl)thio]phenyl]-N-ethyl-N-methylmethanimidamide] | ≥ 70%
4 | 1.1 |  | CCN(C)C=Nc1cc(Br)c([S+]([O-])c2ccccc2F)cc1C (centres unmarked) [Example I-043, N'-[5-bromo-4-(2-fluorophenyl)sulfinyl-2-methylphenyl]-N-ethyl-N-methylmethanimidamide] | 
5 | 1.45 |  | CCN(C)C=Nc1cc(C)c(S(=O)(=O)c2ccccc2F)cc1C(C)C [Example I-093, N-ethyl-N'-[4-(2-fluorophenyl)sulfonyl-2-isopropyl-5-methylphenyl]-N-methylmethanimidamide] | 
6 | 0.9 |  | CCN(C)C=Nc1cc(C)c([S+]([O-])c2ccccc2)cc1C1CC1 (centres unmarked) [Example I-075, N'-[4-(benzenesulfinyl)-2-cyclopropyl-5-methylphenyl]-N-ethyl-N-methylmethanimidamide] | 
7 | 1.15 |  | CCN(C)C=Nc1cc(C)c([S+]([O-])c2ccccc2C)cc1Br (centres unmarked) [Example I-063, N'-[2-bromo-5-methyl-4-(2-methylphenyl)sulfinylphenyl]-N-ethyl-N-methylmethanimidamide] | 
8 | 1.31 |  | CCN(C)C=Nc1cc(Cl)c(S(=O)(=O)c2ccccc2)cc1C [Example I-048, N'-[4-(benzenesulfonyl)-5-chloro-2-methylphenyl]-N-ethyl-N-methylmethanimidamide] | 
9 | 1.34 |  | CCN(C)C=Nc1cc(Br)c(S(=O)(=O)c2ccccc2C#N)cc1C [Example I-070, N'-[5-bromo-4-(2-cyanophenyl)sulfonyl-2-methylphenyl]-N-ethyl-N-methylmethanimidamide] | 
10 | 0.94 |  | CCN(C)C=Nc1cc(C)c([S+]([O-])c2ccccc2F)cc1Cl (centres unmarked) [Example I-014, N'-[2-chloro-4-(2-fluorophenyl)sulfinyl-5-methylphenyl]-N-ethyl-N-methylmethanimidamide] | 
11 | 1.8 |  | CCN(C)C=Nc1cc(C#N)c(S(=O)(=O)c2ccccc2C)cc1C [Example I-059, N'-[5-cyano-2-methyl-4-(2-methylphenyl)sulfonylphenyl]-N-ethyl-N-methylmethanimidamide] | 
12 | 1.18 |  | CCN(C)C=Nc1cc(F)c(S(=O)(=O)c2ccccc2)cc1C [Example I-027, N'-[4-(benzenesulfonyl)-5-fluoro-2-methylphenyl]-N-ethyl-N-methylmethanimidamide] | 
13 | 1.42 |  | CCN(C)C=Nc1cc(F)c(S(=O)(=O)c2ccccc2C)cc1C [Example I-028, N-ethyl-N'-[5-fluoro-2-methyl-4-(2-methylphenyl)sulfonylphenyl]-N-methylmethanimidamide] | 
14 | 1.04 |  | CCN(C)C=Nc1cc(C)c([S+]([O-])c2ccccc2F)cc1C1CC1 (centres unmarked) [Example I-089, N'-[2-cyclopropyl-4-(2-fluorophenyl)sulfinyl-5-methylphenyl]-N-ethyl-N-methylmethanimidamide] | 
15 | 1.84 |  | CCN(C)C=Nc1cc(C)c(S(=O)(=O)c2ccccc2F)cc1Cl [Example I-019, N'-[2-chloro-4-(2-fluorophenyl)sulfonyl-5-methylphenyl]-N-ethyl-N-methylmethanimidamide] | 

Further lines, the molecule ahead of its results:

Row | Compound | chromatographic logP [1, 2] | chromatographic logP ([1]; method [b]: LC-UV, neutral range, 0.001 molar ammonium acetate solution in water and acetonitrile as eluent (linear gradient 10% to 95% acetonitrile)) | pest or weed control at 500 ppm (Phakospora pachyrhizi)
16 | CCN(C)C=Nc1cc(Cl)c(Sc2ccccc2C)cc1C [Example I-025, N'-[5-chloro-2-methyl-4-[(2-methylphenyl)thio]phenyl]-N-ethyl-N-methylmethanimidamide] | 1.81 |  | ≥ 70%
17 | CCN(C)C=Nc1cc(Br)c(Sc2ccccc2C#N)cc1C [Example I-068, N'-[5-bromo-4-[(2-cyanophenyl)thio]-2-methylphenyl]-N-ethyl-N-methylmethanimidamide] | 1.53 |  | ≥ 70%
18 | CCN(C)C=Nc1cc(Br)c(S(=O)(=O)c2ccccc2Cl)cc1C [Example I-044, N'-[5-bromo-4-(2-chlorophenyl)sulfonyl-2-methylphenyl]-N-ethyl-N-methylmethanimidamide] | 1.58 |  | ≥ 70%
19 | CCN(C)C=Nc1cc(C)c(Sc2ccccc2C#N)cc1C1CC1 [Example I-100, N'-[4-[(2-cyanophenyl)thio]-2-cyclopropyl-5-methylphenyl]-N-ethyl-N-methylmethanimidamide] | 1.6 | 4.74 | ≥ 70%
20 | CCN(C)C=Nc1cc(F)c(Sc2ccccc2)cc1C [Example I-021, N-ethyl-N'-(5-fluoro-2-methyl-4-phenylsulfanylphenyl)-N-methylmethanimidamide] | 1.53 |  | ≥ 70%
21 | CCN(C)C=Nc1cc(C)c(Sc2ccccc2Cl)cc1C [Example I-005, N'-[4-[(2-chlorophenyl)thio]-2,5-dimethylphenyl]-N-ethyl-N-methylmethanimidamide] | 2.16 |  | ≥ 70%
22 | CCN(C)C=Nc1cc(Br)c(Sc2ccccc2C)cc1C [Example I-042, N'-[5-bromo-2-methyl-4-[(2-methylphenyl)thio]phenyl]-N-ethyl-N-methylmethanimidamide] | 1.81 |  | ≥ 70%
23 | CCN(C)C=Nc1cc(Cl)c([S+]([O-])c2ccccc2)cc1C (centres unmarked) [Example I-050, N'-[4-(benzenesulfinyl)-5-chloro-2-methylphenyl]-N-ethyl-N-methylmethanimidamide] | 0.97 |  | 
24 | CCN(C)C=Nc1cc(F)c([S+]([O-])c2ccccc2)cc1C (centres unmarked) [Example I-031, N'-[4-(benzenesulfinyl)-5-fluoro-2-methylphenyl]-N-ethyl-N-methylmethanimidamide] | 0.78 |  | 
25 | CCN(C)C=Nc1cc(Cl)c([S+]([O-])c2ccccc2C#N)cc1C (centres unmarked) [Example I-051, N'-[5-chloro-4-(2-cyanophenyl)sulfinyl-2-methylphenyl]-N-ethyl-N-methylmethanimidamide] | 0.87 |  | 
26 | CCN(C)C=Nc1cc(C)c(S(=O)(=O)c2ccccc2C)cc1C [Example I-016, N'-[2,5-dimethyl-4-(2-methylphenyl)sulfonylphenyl]-N-ethyl-N-methylmethanimidamide] | 1.18 |  | 
27 | CCN(C)C=Nc1cc(Br)c([S+]([O-])c2ccccc2C#N)cc1C (centres unmarked) [Example I-064, N'-[5-bromo-4-(2-cyanophenyl)sulfinyl-2-methylphenyl]-N-ethyl-N-methylmethanimidamide] | 0.93 |  | 
28 | CCN(C)C=Nc1cc(C#N)c([S+]([O-])c2ccccc2)cc1C (centres unmarked) [Example I-056, N'-[4-(benzenesulfinyl)-5-cyano-2-methylphenyl]-N-ethyl-N-methylmethanimidamide] | 0.87 |  | 
29 | CCN(C)C=Nc1cc(C)c(S(=O)(=O)c2ccccc2)cc1C [Example I-004, N'-[4-(benzenesulfonyl)-2,5-dimethylphenyl]-N-ethyl-N-methylmethanimidamide] | 1 |  | 
30 | CCN(C)C=Nc1cc(C)c(S(=O)(=O)c2ccccc2F)cc1Br [Example I-071, N'-[2-bromo-4-(2-fluorophenyl)sulfonyl-5-methylphenyl]-N-ethyl-N-methylmethanimidamide] | 1.81 |  | 
31 | CCN(C)C=Nc1cc(C)c(S(=O)(=O)c2ccccc2F)cc1C1CC1 [Example I-096, N'-[2-cyclopropyl-4-(2-fluorophenyl)sulfonyl-5-methylphenyl]-N-ethyl-N-methylmethanimidamide] | 1.27 |  | 
32 | CCN(C)C=Nc1cc(C)c([S+]([O-])c2ccccc2C)cc1C(F)(F)F (centres unmarked) [Example I-088, N-ethyl-N-methyl-N'-[5-methyl-4-(2-methylphenyl)sulfinyl-2-(trifluoromethyl)phenyl]methanimidamide] | 2.14 |  | 
33 | CCN(C)C=Nc1cc(C)c(Sc2ccccc2C)cc1C(F)(F)F [Example I-083, N-ethyl-N-methyl-N'-[5-methyl-4-[(2-methylphenyl)thio]-2-(trifluoromethyl)phenyl]methanimidamide] | 2.62 |  | 
